Laboratory results taken from US20090054403A1, “Treatment of Post-Traumatic Stress Disorder” (priority 2007, published 2009).
“Also recorded” adds a separate entry of the source.

Experiments:
[1] = test system: sympathetically-evoked functional responses; experiment: Sympathetically-evoked functional responses in anesthetized dogs; type: in vivo, beagle dogs
[2] = test system: mean arterial pressure and heart rate; experiment: Heart rate and mean arterial pressure in restrained SHR with SCH-23390 pretreatment; type: in vivo, spontaneous hypertensive rats
Source text: Male, spontaneous hypertensive rats (280-345 g; Charles River Labs, Kingston, N.Y.) were fasted overnight then anesthetized with ether. A femoral artery and femoral vein were cannulated with PE50 tubing for recording of blood pressure and administration of compounds, respectively. Animals were then placed in MAYO restrainers and their feet loosely taped to the restrainer. Heparinized saline (50 units sodium heparin/ml) was used to maintain patency of each cannula throughout the experiment. The following parameters were continuously recorded using Modular Instruments MI^2 BioReport™ software installed on an IBM personal computer: mean arterial pressure (MAP), heart rate (HR), and the change from baseline for each parameter at specified time points in the experiment.
All compounds were dissolved on the day of use. nepicastat was dissolved in deionized water (vehicle) to a free base concentration of 1 mg/ml. Oral dosing volume for nepicastat or vehicle was 10 ml/kg. SCH-23390 was dissolved in saline (vehicle) to a free base concentration of 0.2 mg/ml. […] or saline were administered intravenously as a bolus in a volume of 1.0 ml/kg followed by 0.2 ml flush of isotonic saline.
Following surgical preparation, each animal was allowed a minimum one hour recovery period. Animals were randomly assigned to four treatment groups: vehicle (iv)/vehicle (po); vehicle (iv)/nepicastat (po); SCH-23390 (iv)/vehicle (po); or SCH-23390 (iv)/nepicastat (po). Once animals were stabilized (minimum one hour), baseline blood pressure and heart rate was determined by taking an average of each parameter over a 15 min period of time. Once baseline blood pressure and heart rate were established, animals were dosed intravenously with either SCH-23390 (200 μg/kg) or vehicle (saline, 1 ml/kg). Fifteen minutes later, animals were orally dosed with either nepicastat (10 mg/kg) or vehicle (deionized water, 10 ml/kg).
Recorded parameters were measured 15 min prior to intravenous dosing to establish baseline blood pressure and heart rate. Recorded parameters were then measured at 5, 10, and 15 min following intravenous administration of SCH-23390 or vehicle. Following oral administration of nepicastat or vehicle, recorded parameters were measured at 15, 30, 60, 90, 120, 150, 180, 210, and 240 min.
At the end of the experiment, each animal was anesthetized with halothane and euthanized via decapitation. The cortex, left ventricle (apex), and mesenteric artery were dissected out, weighed, and fixed in 0.4 M perchloric acid. […] Blood pressure and heart rate were analyzed separately. The change from baseline for blood pressure and heart rate were analyzed by an analysis of variance (ANOVA) with effects for treatment, time, and their interaction. […]

bovine DBH = molecular target: T1, bovine DBH (Bos taurus, UniProt P15101); experiment: Bovine DBH inhibition kinetics, [14C]tyramine radioactive method; type: biochemical
T1 construct: Bovine DBH from adrenal glands was obtained from Sigma Chemicals; purchased Sigma Chemicals (St Louis, Mo.); host or cells: bovine adrenal glands
Protocol: Enzyme Assay by Radioactive Method. Enzymatic activity was assayed using [^14C]tyramine as substrate and a C18 column to separate the product. The assay was performed in […] volume containing 100 mM NaAc, pH 5.2, 10 mM fumaric acid, 0.5 μM CuSO4, 4 mM ascorbic acid, 0.1 mg/ml catalase and various concentrations of tyramine. The total counts of each reaction was ˜15,000 cpm. Bovine DBH (0.18 ng for each reaction) was mixed with tyramine and inhibitor in the reaction buffer at 37° C. The reaction was initiated by the addition of ascorbate/catalase mixture and was incubated at 37° C. for 30 minutes. The reaction was stopped by the addition of […] of 25 mM EDTA, 50 mM KH2PO4, pH 2.3. Entire mixture was loaded to a C18 light load column (two combined into one) that was pre-washed with MeOH and equilibrated with 50 mM KH2PO4, pH 2.3. Elution into scintillation vials was carried out with 1 ml of KH2PO4, pH 2.3 buffer twice, followed by 2 ml of the same buffer. ReadySafe scintillation fluid (16 ml) was added to the scintillation vials and the samples were counted for ^14C radioactivity.
Nepicastat concentrations of 0, 1, 2, 4, 8 nM were used to study inhibition kinetics at the following tyramine concentrations: 0.5, 1, 2, 3, 4 mM. […] Km′ was calculated from the slopes and Y intercepts and linear regression was used to obtain Ki value.

[3] = molecular target: Ca2+/calmodulin protein kinase II; experiment: Selected enzyme assay; type: biochemical
Protocol: The activity of nepicastat at twelve selected enzymes and receptors was determined using established assays. Details of individual receptor radioligand binding assays can be found in Wong et al (1993). Binding data were analyzed by iterative curve-fitting to a four parameter logistic equation. Ki values were calculated from IC50 values using the Cheng-Prusoff equation. Enzyme inhibitory activity was expressed as IC50 (concentration required to produce 50% inhibition of enzyme activity). Male SHRs (15-16 weeks old, Charles River, Wilmington, Mass., USA) were used in the study. On the day of the study, animals were weighed and randomly assigned to be dosed with either vehicle (control) or the appropriate dose of nepicastat (3, 10, 30 or 100 mg.kg^−1, po) or (R)-5-Aminomethyl-1-(5,7-difluoro-1,2,3,4-tetrahydronaphth-2-yl)-2,3-dihydro-2-thioxo-1H-imidazole hydrochloride (30 mg.kg^−1, po) three consecutive times, twelve hours apart. At six hours after the third dose, the rats were anaesthetized with halothane, decapitated and tissues (cerebral cortex, mesenteric artery and left ventricle) were rapidly harvested, weighed, placed in iced perchloric acid (0.4 M), frozen in liquid nitrogen and stored at −70° C. until subsequent analysis. To quantify noradrenaline and dopamine concentrations, tissues were homogenized by brief sonication and centrifuged at 13,000 rpm for 30 minutes at 4° C. The supernatant, spiked with 3,4-dihydroxybenzylamine (internal standard), was assayed for noradrenaline and dopamine by HPLC using electrochemical detection.
In vitro assay of selected enzymes and neurotransmitter receptors. The activity of 2a at eleven different enzymes was determined using established assays (PanLabs Inc, Foster City, Calif.). The affinity of 2a for thirteen selected receptors was determined by radioligand binding assays using standard filtration techniques and membrane preparations. Binding data were analyzed by iterative curve fitting to a four parameter logistic equation. Ki values were calculated using the Cheng-Prusoff equation.

T1 sequence (P15101 whole entry): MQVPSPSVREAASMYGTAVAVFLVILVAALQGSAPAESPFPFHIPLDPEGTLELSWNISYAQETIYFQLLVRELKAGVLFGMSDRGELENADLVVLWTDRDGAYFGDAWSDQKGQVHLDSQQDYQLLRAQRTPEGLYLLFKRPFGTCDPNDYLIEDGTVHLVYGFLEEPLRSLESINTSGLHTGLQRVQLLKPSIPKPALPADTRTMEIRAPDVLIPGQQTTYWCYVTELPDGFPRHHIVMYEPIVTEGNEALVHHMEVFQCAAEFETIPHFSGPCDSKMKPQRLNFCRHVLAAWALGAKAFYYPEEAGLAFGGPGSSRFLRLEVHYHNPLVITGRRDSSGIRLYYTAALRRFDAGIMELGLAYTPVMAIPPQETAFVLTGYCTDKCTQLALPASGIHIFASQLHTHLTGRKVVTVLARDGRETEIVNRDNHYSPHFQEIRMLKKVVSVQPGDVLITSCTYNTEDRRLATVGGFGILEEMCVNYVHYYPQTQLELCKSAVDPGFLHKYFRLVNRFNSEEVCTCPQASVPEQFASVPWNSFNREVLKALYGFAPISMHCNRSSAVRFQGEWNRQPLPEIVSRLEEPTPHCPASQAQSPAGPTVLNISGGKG

**Q.** For `Cl.NCc1c[nH]c(=S)n1[C@H]1CCc2c(F)cc(F)cc2C1` [nepicastat, (S)-5-Aminomethyl-1-(5,7-difluoro-1,2,3,4-tetrahydronaphth-2-yl)-2,3-dihydro-2-thioxo-1H-imidazole hydrochloride], which “heart rate response to i.v. tyramine challenge” value ([1]; 10 mg/kg/d for 4.5 days) is on record?
**A.** significantly reduced the increase in heart rate

**Q.** What about the “inhibition of responses to renal nerve stimulation and carotid artery occlusion” value ([1]; 30 mg/kg intraduodenally, up to 5 hours) of the same compound?
**A.** did not significantly inhibit

**Q.** What about the “mean arterial pressure vs vehicle” value ([2]; 10 mg/kg oral) of the same compound?
**A.** significant decrease (p<0.05) in mean arterial pressure by 30 min post dose

**Q.** And the “heart rate vs vehicle” value ([2]; SCH-23390 200 μg/kg iv, nepicastat 10 mg/kg po)?
**A.** did not decrease the heart rate as much as observed in vehicle treated animals

**Q.** What about the “antihypertensive effects of nepicastat after pretreatment with SCH-23390” value ([2]; nepicastat 10 mg/kg po, SCH-23390 iv, hydrochloride) of the same compound?
**A.** not attenuated; also recorded: did not significantly attenuate

**Q.** And the type of inhibition (bovine DBH; nepicastat 1-8 nM, tyramine 0.5-4 mM)?
**A.** competitive with tyramine

**Q.** And the Ki (bovine DBH; vs tyramine, linear regression of apparent Km)?
**A.** 4.7 ± 0.4 nM

**Q.** What about the IC50 [3] of the same compound?
**A.** > 10000 nM
